According to ChEMBL document CHEMBL3797116, “Modification on the O-glucoside of Sergliflozin-A: A new strategy for SGLT2 inhibitor design” (Bioorg Med Chem Lett, 2016):

Experiments:
[1] = (§1) Metabolic stability in rat liver homogenate assessed as compound hydrolysis at 10 uM after 8 hrs; format: ADME, tissue-based; settings: liver homogenate, read-out: Drug degradation
Rattus norvegicus [2] = assay: In vivo hypoglycemic activity in Sprague-Dawley rat assessed as urinary […] glucose level per 200g of animal body weight measured for 4 to 8 hrs at 5 mL/kg, po (reference value: 0.14 +/- 0.03 mg); format: functional, Urine
Rattus norvegicus [3] = assay: In vivo hypoglycemic activity in Sprague-Dawley rat assessed as urinary […] glucose level per 200g of animal body weight measured for 0 to 4 hrs at 5 mL/kg, po (reference value: 0.26 +/- 0.04 mg); format: functional, Urine
Rattus norvegicus [4] = assay: In vivo hypoglycemic activity in Sprague-Dawley rat assessed as urinary […] glucose level per 200g of animal body weight measured for 8 to 12 hrs at 5 mL/kg, po (reference value: 0.21 +/- 0.01 mg); format: functional, Urine
Rattus norvegicus [5] = assay: In vivo hypoglycemic activity in Sprague-Dawley rat assessed as urinary […] glucose level per 200g of animal body weight measured for 0 to 24 hrs at 5 mL/kg, po (reference value: 2.03 +/- 0.34 mg); format: functional, Urine
Rattus norvegicus [6] = assay: In vivo hypoglycemic activity in Sprague-Dawley rat assessed as urinary […] glucose level per 200g of animal body weight measured for 12 to 24 hrs at 5 mL/kg, po (reference value: 1.45 +/- 0.28 mg); format: functional, Urine
Rattus norvegicus [7] = assay: In vivo hypoglycemic activity in Sprague-Dawley rat assessed as reduction in urinary […] glucose level per 200g of animal body weight measured for 0 to 24 hrs at 5 mL/kg, po; format: functional, Urine; set-up: scale not given: the % may be the effect or the level left
[8] = Octanol-phosphate buffer saline partition coefficient, logP of the compound measured after 24 hrs by HPLC method; format: physicochemical
Rattus norvegicus [9] = assay: In vivo hypoglycemic activity in Sprague-Dawley rat assessed as urinary […] glucose level per 200g of animal body weight measured for 6 to 24 hrs at 5 mL/kg, po; format: functional, Urine
Rattus norvegicus [10] = assay: In vivo hypoglycemic activity in Sprague-Dawley rat assessed as urinary […] glucose level per 200g of animal body weight measured for 0 to 6 hrs at 5 mL/kg, po; format: functional, Urine
Liver = assay: as §1; format: ADME, tissue-based; settings: tissue homogenate, 8 h, 10 µM

metabolised at 8 h, 10 µM [1] [%]	logP at 24 h [8]	Stability (Liver)	Compound	Activity (Rattus norvegicus [2]) [mg]	Activity (Rattus norvegicus [3]) [mg]	Activity (Rattus norvegicus [4]) [mg]	Activity (Rattus norvegicus [5]) [mg]	Activity (Rattus norvegicus [6]) [mg]	Activity (Rattus norvegicus [7]) [%]	Activity (Rattus norvegicus [9]) [mg]	Activity (Rattus norvegicus [10]) [mg]
> 80	–	–	Cc1cc(=O)oc2cc(O[C@@H]3O[C@H](CO)[C@@H](O)[C@H](O)[C@H]3O)ccc12	–	–	–	–	–	–	–	–
–	–	–	COc1ccc(Cc2ccccc2O[C@@H]2O[C@H](CO)[C@@H](O)C[C@H]2O)cc1	0.23	0.36	0.21	1.24	0.44	–	–	–
–	1.83	–	COc1ccc(Cc2ccccc2O[C@@H]2O[C@H](CO)[C@@H](OC)[C@H](O)[C@H]2O)cc1	58.68	102.46	11.01	172.94	0.78	73	–	–
–	–	–	COc1ccc(Cc2ccccc2O[C@@H]2O[C@H](CO)[C@@H](O)[C@H](O)[C@H]2OC)cc1	0.03	0.11	0.02	0.27	0.11	–	–	–
–	–	–	COc1ccc(Cc2ccccc2O[C@@H]2O[C@H](CO)[C@@H](O)[C@H](O)[C@H]2F)cc1	–	–	–	16	–	–	11	4.9
–	–	–	COc1ccc(Cc2ccccc2O[C@@H]2O[C@H](CF)[C@@H](O)[C@H](O)[C@H]2O)cc1	1.03	2.34	0.13	4.52	1.02	–	–	–
–	–	–	COC[C@H]1O[C@@H](Oc2ccccc2Cc2ccc(OC)cc2)[C@H](O)[C@@H](O)[C@@H]1O	4.11	61.23	7.19	73.29	0.76	31	–	–
–	–	–	COc1ccc(Cc2ccccc2O[C@@H]2O[C@H](CO)[C@@H](O)[C@H](OC)[C@H]2O)cc1	4.11	13.67	0.65	18.67	0.24	–	–	–
–	–	Stable	CO[C@H]1[C@H](O)[C@@H](O)[C@H](Oc2ccc3oc(=O)cc(C)c3c2)O[C@@H]1CO	–	–	–	–	–	–	–	–
–	–	–	COc1ccc(Cc2ccccc2O[C@@H]2O[C@H](C)[C@@H](O)[C@H](O)[C@H]2O)cc1	0.69	33.36	0.07	34.91	0.8	–	–	–
–	–	–	COc1ccc(Cc2ccccc2O[C@@H]2O[C@H](CO)C[C@H](O)[C@H]2O)cc1	0.68	8.21	0.42	11.05	1.73	–	–	–
–	1.32	–	COc1ccc(Cc2ccccc2O[C@@H]2O[C@H](CO)[C@@H](O)[C@H](O)[C@H]2O)cc1 [SERGLIFLOZIN A]	34.8	126.99	33.8	235.03	39.44	–	–	–
